Data published in patent US20170367956A1, “Oral Care Composition” (Colgate-Palmolive Company, priority 2014, published 2017).

Key:
[1] = tested on: HSP-27; assay: Intracellular HSP27 expression in scratched keratinocytes (ELISA); assay type: cell-based, human; conditions: for HSP-27, intracellular: 50 ppm taurine
Description: Human keratinocytes are cultured in DMEM medium supplemented with 10% FBS and 1% of antibiotic at 37° C. under a 5% CO2 atmosphere in petri dishes. Once the cells are 80-90% confluent, a scratch is made horizontally and a scratch is made vertically across the layer of cells. […] […] The cell suspension is then homogenized with metal beads for 5 minutes and then analyzed for HSP27 using ELISA. In both untreated and arginine treated cells, scratching induces a strong increase in intracellular HSP-27 expression at one hour which declines at 4 hours. […] Without being bound by theory, Applicants believe that it is this initial burst of HSP-27 expression at the time of physical injury that contributes to improved wound healing.

[2] = tested on: HSP 27; assay: HSP 27 assay in scratched (damaged) human gingival tissue, supernatant level; assay type: cell-based; conditions: for Concentration of HSP 27: scratched gingival tissue
Description: A scratching protocol was used to damage and stress human gingival tissue (MatTek Corporation). Taurine, at two doses, (50 ppm and 200 ppm), was applied to the culture medium containing the tissue. The treated tissue was incubated at 37° C. to promote tissue healing. Cell supernatant was collected at various time points and the level of HSP 27 was measured.

[3] = tested on: Human keratinocytes; assay: Migration of human keratinocytes after scratch (gap closure); assay type: cell-based; conditions: for % Gap Closure: 100 ppm taurine in DMEM
Description: Human keratinocytes are cultured in DMEM medium supplemented with 10% FBS and 1% of antibiotic at 37° C. under a 5% CO2 atmosphere in petri dishes. Once the cells are 80-90% confluent, a scratch is made horizontally and a scratch is made vertically across the layer of cells. 1 ml of a test solution is added to the culture, and the cells are further incubated and monitored by photomicroscopy to evaluate the closure of the gap created by the scratches. The test solutions compared are 100 ppm Taurine in DMEM medium and untreated DMEM medium. The results are shown in Table 4 below, expressed as the average width of the gap as a percentage of the initial width of the gap (at 0 hours).

Compound	Intracellular HSP-27 expression versus untreated cells (in words) [1]	Difference in HSP 27 production between the two concentrations of taurine (in words) ([2]; 50 ppm versus 200 ppm)	Effect on production of HSP 27 versus untreated, scratched tissue (in words) ([2]; both doses tested (50 ppm and 200 ppm), 1 hour and 4 hours)	Concentration of HSP 27 ([2]; taurine 50 ppm, incubation time 0 hr) [ng/mL]	Concentration of HSP 27 ([2]; taurine 50 ppm, incubation time 1 hr) [ng/mL]	Concentration of HSP 27 ([2]; taurine 50 ppm, incubation time 4 hr) [ng/mL]	Concentration of HSP 27 ([2]; taurine 200 ppm, incubation time 0 hr) [ng/mL]	Concentration of HSP 27 ([2]; taurine 200 ppm, incubation time 1 hr) [ng/mL]	Concentration of HSP 27 ([2]; taurine 200 ppm, incubation time 4 hr) [ng/mL]	Speed of gap closure compared to the DMEM control (in words) ([3]; 100 ppm taurine)	% Gap Closure ([3]; 24 hr after scratch) [%]	% Gap Closure ([3]; 48 hr after scratch) [%]	% Gap Closure ([3]; 144 hr after scratch) [%]	HSP-27, intracellular ([1]; time 0 hr) [ng/mL]	HSP-27, intracellular ([1]; time 1 hr) [ng/mL]
N=C(N)NCCC[C@H](N)C(=O)O [arginine]	significantly higher expression of HSP-27	–	–	–	–	–	–	–	–	–	–	–	–	–	–
NCCS(=O)(=O)O [Taurine, 2-aminoethanesulfonic acid]	–	no significant difference	significantly accelerated the production of HSP 27	10.05	180.33	269.64	6.19	196.95	275.17	significantly faster	23	71	100	23.59	69.65
